This is an account of results in paper PMC12117170.

This series in a line: Intramolecular Cu-catalysed sydnonimine-alkyne click-and-release (forms 1,4-disubstituted pyrazole, releases CO2 and pyrenylmethyl urea/isocyanate): CuSO4 0.2 eq, bathophenanthroline disulfonate 0.4 eq, Na ascorbate 3 eq, triethanolamine 2 eq, 16 h; rGO filtration and aqueous work-up. Particulars: DMSO/H2O 1:1, 35.0 mM, 37.0 °C.

The molecule `C#CCNC(=O)CNC(=O)c1cccc(-[n+]2cc([N-]C(=O)NCc3ccc4ccc5cccc6ccc3c4c56)on2)c1` [S1 -> CyP1] showed a ring closure, isolated yield (the molecule shown is the open-chain precursor, 12-membered ring) of 0%. In turn, `CC(C)C[C@@H]1NC(=O)[C@H](Cc2ccccc2)NC(=O)c2cccc(c2)-n2cc(cn2)CNC1=O` [3-(sydnonimine-pyrene)benzoyl-Phe-Leu-NH-propargyl] had a ring closure, isolated yield (from C#CCNC(=O)[C@H](CC(C)C)NC(=O)[C@H](Cc1ccccc1)NC(=O)c1cccc(-[n+]2cc([N-]C(=O)NCc3ccc4ccc5cccc6ccc3c4c56)on2)c1, 15-membered ring) of 63%. In the case of `COC(=O)[C@@H]1CCCCNC(=O)c2cccc(c2)-n2cc(cn2)CCCC(=O)N1` [hex-5-ynoyl-Lys(Nε-3-(sydnonimine-pyrene)benzoyl)-OMe], the ring closure, isolated yield (from C#CCCCC(=O)N[C@@H](CCCCNC(=O)c1cccc(-[n+]2cc([N-]C(=O)NCc3ccc4ccc5cccc6ccc3c4c56)on2)c1)C(=O)OC, 18-membered ring) came out at 76%. In turn, `CC(C)C[C@@H]1NC(=O)[C@@H]2CCCN2Cc2cnn(c2)-c2cccc(c2)C(=O)NCCNC(=O)CNC1=O` came in with a ring closure, isolated yield (from C#CCN1CCC[C@H]1C(=O)N[C@@H](CC(C)C)C(=O)NCC(=O)NCCNC(=O)c1cccc(-[n+]2cc([N-]C(=O)NCc3ccc4ccc5cccc6ccc3c4c56)on2)c1, 21-membered ring) of 79%. `O=C1CCCCNC(=O)c2cccc(c2)-n2cc(cn2)CN1` [S2 -> CyP2] returned a ring closure, isolated yield (from C#CCNC(=O)CCCCNC(=O)c1cccc(-[n+]2cc([N-]C(=O)NCc3ccc4ccc5cccc6ccc3c4c56)on2)c1, 15-membered ring) of 75%. Where the note is “from C#CCCC(=O)Nc1ccc(Oc2cccc(Oc3ccc(NC(=O)c4cccc(-[n+]5cc([N-]C(=O)NCc6ccc7ccc8cccc9ccc6c7c89)on5)c4)cc3)c2)cc1, 25-membered ring”, `O=C1CCc2cnn(c2)-c2cccc(c2)C(=O)Nc2ccc(cc2)Oc2cccc(c2)Oc2ccc(cc2)N1` [S8 -> CyP8] registered a ring closure, isolated yield of 72%. As for `O=C1NCCOCCOCCOCc2cnn(c2)-c2cccc1c2` [S7 -> CyP7 (50 C)], the ring closure, isolated yield (from C#CCOCCOCCOCCNC(=O)c1cccc(-[n+]2cc([N-]C(=O)NCc3ccc4ccc5cccc6ccc3c4c56)on2)c1, 18-membered ring) came to 81%. `CC(C)C[C@@H]1NC(=O)c2cccc(c2)-n2cc(cn2)CNC(=O)[C@H](C)NC1=O` [3-(sydnonimine-pyrene)benzoyl-Leu-Ala-NH-propargyl]: the ring closure, isolated yield (from C#CCNC(=O)[C@H](C)NC(=O)[C@H](CC(C)C)NC(=O)c1cccc(-[n+]2cc([N-]C(=O)NCc3ccc4ccc5cccc6ccc3c4c56)on2)c1, 15-membered ring) was found to be 68%. As for `O=C1CCCCCCCCCCNC(=O)c2cccc(c2)-n2cc(cn2)CNC(=O)CCCCN1` [S6 -> CyP6], the ring closure, isolated yield (from C#CCNC(=O)CCCCNC(=O)CCCCCCCCCCNC(=O)c1cccc(-[n+]2cc([N-]C(=O)NCc3ccc4ccc5cccc6ccc3c4c56)on2)c1, 27-membered ring) was determined as 78%. As for `O=C1CCCCCCCCCCNC(=O)c2cccc(c2)-n2cc(cn2)CNC(=O)CN1` [S5 -> CyP5], for the setting “from C#CCNC(=O)CNC(=O)CCCCCCCCCCNC(=O)c1cccc(-[n+]2cc([N-]C(=O)NCc3ccc4ccc5cccc6ccc3c4c56)on2)c1, 24-membered ring”, the ring closure, isolated yield was 68%.

`O=C1CNC(=O)[C@H](Cc2c[nH]c3ccccc23)NC(=O)c2cccc(c2)-n2cc(cn2)CN1` [3-(sydnonimine-pyrene)benzoyl-Trp-Gly-NH-propargyl] displayed a ring closure, isolated yield (from C#CCNC(=O)CNC(=O)[C@H](Cc1c[nH]c2ccccc12)NC(=O)c1cccc(-[n+]2cc([N-]C(=O)NCc3ccc4ccc5cccc6ccc3c4c56)on2)c1, 15-membered ring) of 75%. The molecule `O=C1CCCCCCCCCCNC(=O)c2cccc(c2)-n2cc(cn2)CN1` [S4 -> CyP4] registered a ring closure, isolated yield (from C#CCNC(=O)CCCCCCCCCCNC(=O)c1cccc(-[n+]2cc([N-]C(=O)NCc3ccc4ccc5cccc6ccc3c4c56)on2)c1, 21-membered ring) of 65%. Take `O=C1CCCCCCCNC(=O)c2cccc(c2)-n2cc(cn2)CN1` [S3 -> CyP3]: the ring closure, isolated yield (from C#CCNC(=O)CCCCCCCNC(=O)c1cccc(-[n+]2cc([N-]C(=O)NCc3ccc4ccc5cccc6ccc3c4c56)on2)c1, 18-membered ring) was 85%.
